# According to patent US6774235B2, “Trisubstituted 1,3,5-triazine derivatives” (Janssen Pharmaceutica N.V., priority 1998, dated 2004):
# Read-outs that look alike come from different tables or passages of the source.
# Key:
# MT-4 = experiment: Cytotoxicity in mock-infected MT-4 cells (MTT)
# Experimental: (§1) A rapid, sensitive and automated assay procedure was used for the in vitro evaluation of anti-HIV agents. An HIV-1 (wildtype IIIB) transformed T4-cell line, MT-4, which was previously shown (Koyanagi et al., Int. J Cancer, 36, 445-451, 1985) to be highly susceptible to and permissive for HIV infection, served as the target cell line. Inhibition of the HIV-induced cytopathic effect was used as the end point. […] The percent protection achieved by the compound in HIV-infected cells was calculated by the following formula: [formula]
# (§2) whereby (ODT)HIV is the optical density measured with a given concentration of the test compound in HIV-infected cells; (ODC)HIV is the optical density measured for the control untreated HIV-infected cells; (ODC)MOCK is the optical density measured for the control untreated mock-infected cells; all optical density values were determined at 540 nm. […] The ratio of CC50 to IC50 was defined as the selectivity index (SI).
# HIV-1 (wildtype IIIB) = experiment: microbe, parasite or virus in culture; assay type: cell-based; conditions: dose achieving 50% protection of HIV-1 (IIIB) infected MT-4 cells, MTT, OD 540 nm
# Experimental: as §1, §2
# [1] = Cytotoxicity in mock-infected MT-4 cells (MTT); conditions: human, mock-infected MT-4 cells
# Experimental: as §1, §2
# [2] = Human immunodeficiency virus 1, MT4
# [3] = concentration reducing absorbance of mock-infected MT-4 control by 50%, MTT
IC50 (HIV-1 (wildtype IIIB)) [nM],IC50 (HIV-1 (wildtype IIIB); [2]) [nM],SMILES,CC50 (MT-4) [nM],CC50 [1] [nM],CC50 (MT-4; [3]) [nM]
3,,N#Cc1ccc(Nc2nc(N)nc(Oc3c(Cl)cccc3Cl)n2)cc1 [Compound 1],> 20000,,
,3,"Cc1ccc(C)c(Oc2nc(N)nc(Nc3ccc(C#N)cc3)n2)c1 [Compound 2, 4-[[4-amino-6-(2,5-dimethylphenoxy)-1,3,5-triazin-2-yl]amino]benzonitrile]",,34900,
2,,"N#Cc1ccc(Nc2nc(NO)nc(Nc3c(Cl)cccc3Cl)n2)cc1 [Compound 4, 4-[[[6-(2,6-dichlorophenylamino)-4-(hydroxylamino)]-1,3,5-triazin-2-yl]amino]-benzonitrile]",8000,,
2,,Cc1cccc(C)c1Nc1nc(NO)nc(Nc2ccc(C#N)cc2)n1 [Compound 5],7800,,
,5,"Cc1cccc(Cl)c1Nc1nc(N)nc(Nc2ccc(C#N)cc2)n1 [Compound 7, 4-[[4-amino-6-[(2-chloro-6-methylphenyl)amino]-1,3,5-triazin-2-yl]amino]benzonitrile]",,49900,
165,,Cc1cccc(C(C)C)c1Nc1nc(N)nc(Nc2ccc(C#N)cc2)n1 [Compound 8],9300,,
3,,N#Cc1ccc(Nc2nc(N)nc(Nc3c(Cl)cccc3Cl)n2)cc1 [Compound 10],6100,,
,1,"Cc1cc(C)c(Nc2nc(NO)nc(Nc3ccc(C#N)cc3)n2)c(C)c1 [Compound 11, 4-[[4-(hydroxyamino)-6-[(2,4,6-trimethylphenyl)amino]-1,3,5-triazin-2-yl]amino]-benzonitrile]",,6300,
21,,CCc1cccc(CC)c1Nc1nc(N)nc(Nc2ccc(C#N)cc2)n1 [Compound 12],30000,,
259,,CC(=O)c1ccc(C)cc1Nc1nc(N)nc(Nc2ccc(C#N)cc2)n1 [Compound 13],> 100000,,
3,,Cc1cc(C)c(Nc2nc(N)nc(Nc3ccc(C#N)cc3)n2)c(C)c1Br [Compound 15],1700,,
,6,"CCc1cccc(C)c1Nc1nc(N)nc(Nc2ccc(C#N)cc2)n1 [Compound 16, 4-[[4-amino-6-[(2-ethyl-6-methylphenyl)amino]-1,3,5-triazin-2-yl]amino]benzonitrile]",,8100,
3,,N#Cc1ccc(Nc2nc(N)nc(Nc3c(F)cc(F)cc3Br)n2)cc1 [Compound 17],53800,,
8,,N#Cc1ccc(Nc2nc(N)nc(Nc3c(Cl)cc(Cl)cc3Cl)n2)cc1 [Compound 18],45600,,
,4,"N#Cc1ccc(Nc2nc(N)nc(Sc3c(Cl)cccc3Cl)n2)cc1 [Compound 19, 4-[[4-amino-6-[(2,6-dichlorophenyl)thio]-1,3,5-triazin-2-yl]amino]benzonitrile]",,40600,
1,,N#Cc1ccc(Nc2nc(N)nc(NNc3c(Cl)cc(Cl)cc3Cl)n2)cc1 [Compound 21],27800,,
3,,N#Cc1ccc(Nc2nc(N)nc(NNc3c(Cl)cccc3Cl)n2)cc1 [Compound 22],> 100000,,
,1,"N#Cc1ccc(Nc2nc(NO)nc(Nc3c(Cl)cc(Cl)cc3Cl)n2)cc1 [Compound 23, 4-[[4-(hydroxyamino)-6-[(2,4,6-trichlorophenyl)amino]-1,3,5-triazin-2-yl]amino]-benzonitrile]",,7600,
5,,Cc1ccc(Cl)c(C)c1Nc1nc(N)nc(Nc2ccc(C#N)cc2)n1 [Compound 28],42800,,
2,,N#Cc1ccc(Nc2nc(N)nc(Oc3c(Cl)cc(Cl)cc3Cl)n2)cc1 [Compound 30],63500,,
5,,Cc1ccc(Cl)c(C)c1Nc1nc(NO)nc(Nc2ccc(C#N)cc2)n1 [Compound 31],9900,,
1,,Cc1cc(Cl)cc(Cl)c1Oc1nc(N)nc(Nc2ccc(C#N)cc2)n1 [Compound 34],4800,,
7,,N#Cc1ccc(Nc2nc(N)nc(Oc3ccc(Cl)cc3Cl)n2)cc1 [Compound 38],> 100000,,
> 10000,,CC(=O)c1cc(Cl)cc(Cl)c1Oc1nc(N)nc(Nc2ccc(C#N)cc2)n1 [Compound 39],< 10000,,
33,,N#Cc1ccc(Nc2nc(N)nc(Oc3c(Cl)c(Cl)c(Cl)c(Cl)c3Cl)n2)cc1 [Compound 42],> 10000,,
9,,N#Cc1ccc(Nc2nc(N)nc(Oc3c(Cl)ccc(Cl)c3Cl)n2)cc1 [Compound 43],43900,,
5,,N#Cc1ccc(Nc2nc(N)nc(Oc3c(F)cc(F)cc3F)n2)cc1 [Compound 44],> 100000,,

IC50 (HIV-1 (wildtype IIIB)) [nM],IC50 (HIV-1 (wildtype IIIB); [2]) [nM],SMILES,CC50 (MT-4) [nM],CC50 [1] [nM],CC50 (MT-4; [3]) [nM]
7,,N#Cc1ccc(Nc2nc(N)nc(Oc3c(Cl)cc(F)cc3Cl)n2)cc1 [Compound 45],52900,,
31,,COc1cccc(OC)c1Oc1nc(N)nc(Nc2ccc(C#N)cc2)n1 [Compound 46],> 100000,,
75,,COc1cc(C#N)ccc1Oc1nc(N)nc(Nc2ccc(C#N)cc2)n1 [Compound 47],> 100000,,
19,,Cc1c(Cl)c(C)c(Br)c(Oc2nc(N)nc(Nc3ccc(C#N)cc3)n2)c1Br [Compound 48],8700,,
76,,CC(=O)c1cc(F)cc(F)c1Oc1nc(N)nc(Nc2ccc(C#N)cc2)n1 [Compound 49],> 99900,,
59,,Cc1c(Br)c(C)c(Br)c(Oc2nc(N)nc(Nc3ccc(C#N)cc3)n2)c1Br [Compound 50],8100,,
3,,Cc1cc(Cl)c(C)c(C)c1Oc1nc(N)nc(Nc2ccc(C#N)cc2)n1 [Compound 52],1900,,
17,,Cc1c(C)c(Oc2nc(N)nc(Nc3ccc(C#N)cc3)n2)c(Cl)c(C)c1Cl [Compound 53],2500,,
4,,N#Cc1ccc(Nc2nc(N)nc(Sc3ccc(F)cc3Cl)n2)cc1 [Compound 55],> 99900,,
5,,N#Cc1ccc(Nc2nc(N)nc(Sc3cc(Cl)c(Cl)cc3Cl)n2)cc1 [Compound 56],62600,,
15,,N#Cc1ccc(Nc2nc(N)nc(Sc3ccc(F)cc3F)n2)cc1 [Compound 57],> 100000,,
3,,Cc1cc(C)c(Sc2nc(N)nc(Nc3ccc(C#N)cc3)n2)c(C)c1 [Compound 58],47100,,
2,,Cc1ccc(Sc2nc(N)nc(Nc3ccc(C#N)cc3)n2)c(C)c1 [Compound 59],48500,,
3,,Cc1cc(I)cc(C)c1Oc1nc(N)nc(Nc2ccc(C#N)cc2)n1 [Compound 60],45500,,
5,,Cc1cc(C)c(Nc2nc(N)nc(Nc3ccc(C#N)cc3)n2)c(C)c1N [Compound 61],94600,,
3,,Cc1ccc(Oc2nc(N)nc(Nc3ccc(C#N)cc3)n2)c(C)c1 [Compound 62],51600,,
14,,CCc1cc(Br)cc(CC)c1Nc1nc(N)nc(Nc2ccc(C#N)cc2)n1 [Compound 64],46500,,
96,,Cc1cc(Nc2nc(N)nc(Nc3ccc(C#N)cc3)n2)c(Cl)cc1F [Compound 66],> 99900,,
111,,N#Cc1ccc(Nc2nc(N)nc(Nc3c(F)c(F)c(F)c(F)c3F)n2)cc1 [Compound 67],45600,,
15,,COc1cc(OC)c(Nc2nc(N)nc(Nc3ccc(C#N)cc3)n2)c(OC)c1 [Compound 68],63900,,
3,,N#Cc1ccc(Nc2nc(N)nc(Nc3c(Cl)cc(C(F)(F)F)cc3Cl)n2)cc1 [Compound 70],15600,,
2,,N#Cc1ccc(Nc2nc(N)nc(Nc3c(Br)cc(Br)cc3Br)n2)cc1 [Compound 72],6500,,
190,,"Cc1cc(Br)c(Nc2nc(Nc3ccc(C#N)cc3)nc(Nc3ccc(C#N)cc3)n2)c(Br)c1 [Compound 74, N,-[6-[(2,6-dibromo-4-methylphenyl)amino]-1,3,5-triazine-2,4-diyl]bis[4-amino-benzonitrile]]",7000,,
378,,CC(C)c1cc(Br)c(Nc2nc(Nc3ccc(C#N)cc3)nc(Nc3ccc(C#N)cc3)n2)c(Br)c1 [Compound 75],37800,,
7830,,Cc1cc(N)cc(C)c1Oc1nc(N)nc(Nc2ccc(C#N)cc2)n1 [Compound 78],47000,,
2680,,Cc1c(Cl)cc(N)c(Oc2nc(N)nc(Nc3ccc(C#N)cc3)n2)c1Cl [Compound 81],> 99100,,
1490,,COC(=O)c1cc(OC)c(OC)c(OC)c1Nc1nc(N)nc(Nc2ccc(C#N)cc2)n1 [Compound 82],99600,,

SMILES,IC50 (HIV-1 (wildtype IIIB)) [nM],IC50 (HIV-1 (wildtype IIIB); [2]) [nM],CC50 (MT-4) [nM],CC50 [1] [nM],CC50 (MT-4; [3]) [nM]
N#Cc1ccc(Nc2nc(NO)nc(Sc3c(Cl)cccc3Cl)n2)cc1 [Compound 20],3,,11700,,
"Cc1cc(C)c(N=Nc2nc(N)nc(Nc3ccc(C#N)cc3)n2)c(C)c1 [Compound 69, 4-[[4-amino-6-[(2,4,6-trimethylphenyl)azo]-1,3,5-triazin-2-yl]aamino]benzonitrile]",65,,,,> 99900
N#Cc1ccc(Nc2nc(N)nc(Oc3c(F)c(F)c(O)c(F)c3F)n2)cc1 [Compound 80],85500,,,,> 85500
